Reference: PMC12136037, “Type II kinase inhibitors that target Parkinson’s disease–associated LRRK2” (Science Advances, 2025)

Key:
Test in all cases: DSF 100 kinase selectivity screen;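 on dTm: compound tested at 20 µM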
Type in all cases: binding
[1] = target: T1, ~100 representative kinases (Homo sapiens, UniProt P51813); details: Protein BMX; average of three replicates
T1 construct: Recombinant protein kinase domains with a concentration of 2 μM
T1 sequence (P51813 1-675): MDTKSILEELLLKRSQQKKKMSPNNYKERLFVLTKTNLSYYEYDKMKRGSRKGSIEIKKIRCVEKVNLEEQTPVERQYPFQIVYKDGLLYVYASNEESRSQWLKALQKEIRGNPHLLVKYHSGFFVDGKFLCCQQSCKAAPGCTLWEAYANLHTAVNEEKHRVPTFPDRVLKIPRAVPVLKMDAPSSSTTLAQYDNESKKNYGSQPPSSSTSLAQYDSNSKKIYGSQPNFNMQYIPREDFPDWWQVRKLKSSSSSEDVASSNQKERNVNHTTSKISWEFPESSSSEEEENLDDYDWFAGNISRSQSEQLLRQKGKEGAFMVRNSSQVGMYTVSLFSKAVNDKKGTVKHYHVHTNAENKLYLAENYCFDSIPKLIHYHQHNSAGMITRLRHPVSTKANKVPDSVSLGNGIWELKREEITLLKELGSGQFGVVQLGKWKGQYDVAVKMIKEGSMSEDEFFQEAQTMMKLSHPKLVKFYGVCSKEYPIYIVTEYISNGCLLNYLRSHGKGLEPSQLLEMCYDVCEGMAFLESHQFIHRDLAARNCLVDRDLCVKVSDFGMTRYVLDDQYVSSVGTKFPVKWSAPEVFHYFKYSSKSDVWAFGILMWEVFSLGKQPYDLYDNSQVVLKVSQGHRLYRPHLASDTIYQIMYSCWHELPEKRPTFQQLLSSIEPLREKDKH
How it was run: (§1)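 Each kinase domain, at 2 μM, is mixed with 20 μM test compound and SYPRO Orange in Hepes (20 mM, pH 7.5) with 500 mM NaCl. Temperature is then raised at 3°C/min and fluorescence-monitored unfolding yields the melting temperature change, ΔTm in degrees Celsius.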

[2] = target: T2, ~100 representative kinases (Homo sapiens, UniProt Q9Y2H1); details: Protein STK38L; DSF; average of three replicates
T2 construct: Recombinant protein kinase domains with a concentration of 2 μM
How it was run: as §1

[3] = target: T3, ~100 representative kinases (Homo sapiens, UniProt O94768); details: Protein STK17B; DSF; average of three replicates
T3 construct: Recombinant protein kinase domains with a concentration of 2 μM
T3 sequence (O94768 1-372): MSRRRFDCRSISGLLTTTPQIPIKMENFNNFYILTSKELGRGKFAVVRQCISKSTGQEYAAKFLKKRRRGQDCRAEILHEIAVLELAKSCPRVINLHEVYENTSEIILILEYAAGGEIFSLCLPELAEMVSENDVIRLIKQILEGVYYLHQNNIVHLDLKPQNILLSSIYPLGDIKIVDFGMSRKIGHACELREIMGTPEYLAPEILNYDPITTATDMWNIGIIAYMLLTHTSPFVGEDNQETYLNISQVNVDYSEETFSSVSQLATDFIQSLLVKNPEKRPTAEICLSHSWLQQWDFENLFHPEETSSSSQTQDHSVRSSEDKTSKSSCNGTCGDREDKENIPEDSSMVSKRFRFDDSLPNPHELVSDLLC
How it was run: as §1

[4] = target: T4, ~100 representative kinases (Homo sapiens, UniProt P51955); details: protein NEK2; average of three replicates
T4 construct: Recombinant protein kinase domains with a concentration of 2 μM
T4 sequence (P51955 1-445): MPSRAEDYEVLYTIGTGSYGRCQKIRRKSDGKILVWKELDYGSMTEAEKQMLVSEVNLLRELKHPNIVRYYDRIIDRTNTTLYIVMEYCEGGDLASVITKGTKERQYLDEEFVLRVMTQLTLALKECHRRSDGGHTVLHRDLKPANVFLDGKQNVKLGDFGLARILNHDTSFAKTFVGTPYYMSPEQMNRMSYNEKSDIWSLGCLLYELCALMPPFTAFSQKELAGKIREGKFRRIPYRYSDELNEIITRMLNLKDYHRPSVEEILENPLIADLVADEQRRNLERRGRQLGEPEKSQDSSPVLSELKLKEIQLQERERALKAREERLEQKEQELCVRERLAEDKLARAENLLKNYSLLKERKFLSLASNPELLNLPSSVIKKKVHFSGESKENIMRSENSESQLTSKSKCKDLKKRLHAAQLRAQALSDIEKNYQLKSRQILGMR
How it was run: as §1

[5] = target: T5, ~100 representative kinases (Homo sapiens, UniProt P33981); details: Protein TTK; DSF; average of three replicates
T5 construct: Recombinant protein kinase domains with a concentration of 2 μM
T5 sequence (P33981 1-857): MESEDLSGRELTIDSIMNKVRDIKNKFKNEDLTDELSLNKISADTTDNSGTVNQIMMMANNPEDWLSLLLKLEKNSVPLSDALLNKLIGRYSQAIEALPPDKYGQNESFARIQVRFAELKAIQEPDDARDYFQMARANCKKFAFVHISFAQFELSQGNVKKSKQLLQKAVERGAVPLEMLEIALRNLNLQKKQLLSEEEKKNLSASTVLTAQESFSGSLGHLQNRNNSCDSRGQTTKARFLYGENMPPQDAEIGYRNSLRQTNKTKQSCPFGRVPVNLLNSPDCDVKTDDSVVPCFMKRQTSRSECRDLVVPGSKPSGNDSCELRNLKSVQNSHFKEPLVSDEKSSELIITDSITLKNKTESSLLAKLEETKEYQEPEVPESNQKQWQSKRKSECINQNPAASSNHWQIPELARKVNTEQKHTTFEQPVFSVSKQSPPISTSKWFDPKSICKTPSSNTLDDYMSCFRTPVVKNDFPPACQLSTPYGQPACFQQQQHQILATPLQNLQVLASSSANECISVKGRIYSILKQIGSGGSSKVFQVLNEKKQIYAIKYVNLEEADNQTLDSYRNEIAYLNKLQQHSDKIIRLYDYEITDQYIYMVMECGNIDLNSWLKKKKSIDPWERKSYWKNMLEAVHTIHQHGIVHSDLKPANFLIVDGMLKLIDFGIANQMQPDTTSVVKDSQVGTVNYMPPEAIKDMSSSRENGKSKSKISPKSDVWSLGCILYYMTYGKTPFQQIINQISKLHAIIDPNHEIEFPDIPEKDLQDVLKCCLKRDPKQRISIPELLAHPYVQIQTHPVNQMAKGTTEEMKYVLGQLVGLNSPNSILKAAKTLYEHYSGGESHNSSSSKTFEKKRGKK
How it was run: as §1

[6] = test system: ~100 representative kinases; details: for dTm: Protein BRD, average of three replicates; for # >5K: number of proteins of the DSF panel with dTm >5K; for S (5 K) / share of screened kinases stabilized: DSF selectivity panel, thermal shift >5 K
How it was run: as §1

[7] = target: T6, ~100 representative kinases (Homo sapiens, UniProt Q9H2G2); details: Protein SLK; DSF; average of three replicates
T6 construct: Recombinant protein kinase domains with a concentration of 2 μM
How it was run: as §1

[8] = number of kinases with thermal shift >5 K divided by total number of kinases screened
[9] = selectivity score: # >5K divided by # of proteins tested in the DSF panel

T2 sequence (Q9Y2H1 whole entry, the tested form may be a part): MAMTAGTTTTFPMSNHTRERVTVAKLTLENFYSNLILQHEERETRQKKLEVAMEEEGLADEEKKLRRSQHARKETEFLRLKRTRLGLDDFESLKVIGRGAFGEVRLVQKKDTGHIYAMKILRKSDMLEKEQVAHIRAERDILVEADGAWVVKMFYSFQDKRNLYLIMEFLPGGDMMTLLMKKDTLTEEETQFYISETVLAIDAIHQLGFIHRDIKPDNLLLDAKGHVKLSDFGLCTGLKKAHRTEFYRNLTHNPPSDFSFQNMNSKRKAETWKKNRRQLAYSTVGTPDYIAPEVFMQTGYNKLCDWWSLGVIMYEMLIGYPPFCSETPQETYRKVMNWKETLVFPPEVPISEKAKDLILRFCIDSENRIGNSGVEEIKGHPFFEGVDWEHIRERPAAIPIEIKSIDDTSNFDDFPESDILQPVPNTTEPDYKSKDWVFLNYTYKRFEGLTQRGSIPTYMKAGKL
T6 sequence (Q9H2G2 whole entry, the tested form may be a part): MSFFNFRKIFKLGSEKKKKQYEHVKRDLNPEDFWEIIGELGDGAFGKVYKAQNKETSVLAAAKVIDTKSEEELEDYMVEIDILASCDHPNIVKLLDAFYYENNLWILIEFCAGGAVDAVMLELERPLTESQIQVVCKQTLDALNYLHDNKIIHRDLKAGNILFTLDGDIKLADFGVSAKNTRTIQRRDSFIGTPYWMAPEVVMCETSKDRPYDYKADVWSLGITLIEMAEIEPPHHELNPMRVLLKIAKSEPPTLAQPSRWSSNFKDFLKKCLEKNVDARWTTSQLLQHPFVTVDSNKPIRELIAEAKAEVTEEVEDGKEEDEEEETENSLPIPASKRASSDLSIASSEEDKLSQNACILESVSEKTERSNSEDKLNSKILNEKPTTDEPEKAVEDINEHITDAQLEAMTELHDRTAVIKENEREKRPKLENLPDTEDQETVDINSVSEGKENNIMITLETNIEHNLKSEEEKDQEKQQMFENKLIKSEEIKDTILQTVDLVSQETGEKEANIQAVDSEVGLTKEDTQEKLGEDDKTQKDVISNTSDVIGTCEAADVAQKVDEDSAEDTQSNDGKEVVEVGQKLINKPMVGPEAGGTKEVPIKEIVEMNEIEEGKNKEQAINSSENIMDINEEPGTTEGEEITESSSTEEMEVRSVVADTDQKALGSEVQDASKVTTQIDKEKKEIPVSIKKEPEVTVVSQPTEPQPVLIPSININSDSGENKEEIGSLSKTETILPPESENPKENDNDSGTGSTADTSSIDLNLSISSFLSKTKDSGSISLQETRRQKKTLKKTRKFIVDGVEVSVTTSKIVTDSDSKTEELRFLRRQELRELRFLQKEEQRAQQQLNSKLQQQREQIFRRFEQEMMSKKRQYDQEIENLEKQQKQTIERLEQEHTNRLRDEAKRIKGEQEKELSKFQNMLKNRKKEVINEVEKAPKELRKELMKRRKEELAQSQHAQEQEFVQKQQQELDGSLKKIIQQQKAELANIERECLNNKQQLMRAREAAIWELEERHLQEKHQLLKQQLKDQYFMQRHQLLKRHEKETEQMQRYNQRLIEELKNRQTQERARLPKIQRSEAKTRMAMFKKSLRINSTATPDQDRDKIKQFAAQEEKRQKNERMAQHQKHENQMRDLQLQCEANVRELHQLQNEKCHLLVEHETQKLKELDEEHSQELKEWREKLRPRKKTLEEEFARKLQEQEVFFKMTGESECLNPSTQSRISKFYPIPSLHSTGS

SMILES	dTm [1] [K]	dTm [2] [K]	dTm [3] [K]	dTm [4] [K]	dTm [5] [K]	dTm [6] [K]	S(5K) [6, 8]	# >5K [6]	S(5K) [6, 9]	dTm [7] [K]	S (5 K) / share of screened kinases stabilized [6] [%]
O=C(Nc1cccc(-c2c[nH]c3ncnc(N4CCOCC4)c23)c1)C1(C(=O)Nc2ccc(F)c(F)c2)CC1 [Compound 17]	0.61	0.13	6.96	2.00	6.18	0.26	0.32	32	0.320	7.02	
O=C(Nc1cccc(-c2c[nH]c3ncnc(N4CCOCC4)c23)c1)C1(C(=O)Nc2ccc(F)c(Cl)c2)CC1 [Compound 18]	1.13	0.59	9.48	1.39	8.02	0.45	0.36	36	0.360	8.41	
O=C(Nc1cccc(-c2c[nH]c3ncnc(N4CCOCC4)c23)c1)C1(C(=O)Nc2ccc(F)c(Br)c2)CC1 [Compound 19]	0.24	0.00	0.00	-0.29	9.93	1.82	0.31	32	0.308	8.05	
Cc1cc(NC(=O)C2(C(=O)Nc3cccc(-c4c[nH]c5ncnc(N6CCOCC6)c45)c3)CC2)ccc1F [Compound 20]	1.40	0.36	10.15	1.19	8.62	-0.20	0.42	42	0.420	8.94	
COc1cc(NC(=O)C2(C(=O)Nc3cccc(-c4c[nH]c5ncnc(N6CCOCC6)c45)c3)CC2)ccc1F [Compound 21]	0.38	-0.18	8.47	1.38	7.84	-1.43	0.28	28	0.280	6.44	
CC(C)(C)c1cccc(NC(=O)C2(C(=O)Nc3cccc(-c4c[nH]c5ncnc(N6CCOCC6)c45)c3)CC2)c1 [Compound 22]	1.67	-2.35	0.00	0.62	5.44	1.52	0.22	23	0.221	5.75	
O=C(Nc1cccc(-c2c[nH]c3ncnc(N4CCOCC4)c23)c1)C1(C(=O)Nc2ccc(F)cc2F)CC1 [Compound 23]	0.22	0.0847	3.82	1.54	-5.86	-1.02	0.16	16	0.160	4.42	16
Cc1cc(F)ccc1NC(=O)C1(C(=O)Nc2cccc(-c3c[nH]c4ncnc(N5CCOCC5)c34)c2)CC1 [Compound 24]	0.32	-0.0467	2.37	1.66	2.46	-0.87	0.12	12	0.120	3.45	
O=C(Nc1cccc(-c2c[nH]c3ncnc(N4CCOCC4)c23)c1)C1(C(=O)Nc2cc(Br)c(F)cc2F)CC1 [Compound 25]	1.31	0.00	0.00	-3.69	5.98	1.03	0.10	10	0.096	1.44	
O=C(Nc1cccc(-c2c[nH]c3ncnc(N4CCOCC4)c23)c1)C1(C(=O)Nc2ccc(F)c(Br)c2F)CC1 [Compound 26]	-0.35	-2.16	0.00	-4.02	6.98	1.43	0.14	15	0.144	2.31	14
O=C(Nc1cc(F)cc(Br)c1)C1(C(=O)Nc2cccc(-c3c[nH]c4ncnc(N5CCOCC5)c34)c2)CC1 [Compound 27]	0.52	-0.80	0.00	-2.11	4.57	1.43	0.09	9	0.087	3.29	
CC(C)(C)c1cc(NC(=O)Nc2cccc(-c3c[nH]c4ncnc(N5CCOCC5)c34)c2)n(-c2ccc3ncccc3c2)n1 [Compound 28]	2.95	0.64	9.72	2.21	7.28	-0.0106	0.49	49	0.490	13.85	49
Cc1ccc(-n2nc(C(C)(C)C)cc2NC(=O)Nc2cccc(-c3c[nH]c4ncnc(N5CCOCC5)c34)c2)cc1 [Compound 29]	2.21	-0.41	6.55	-0.44	4.46	-2.22	0.36	36	0.356	13.65	
